Results from patent publication US12029728B2, “Small molecules with anti-protozoan activity” (New Mexico Tech University Research Park Corporation, priority 2018, dated 2024).

Legend:
[1] = system: T. cruzi amastigotes and trypomastigotes; test: Viability of tdTomato T. cruzi amastigotes and trypomastigotes, fluorescence; type: cell-based, Trypanosoma cruzi; conditions: 25 μM, 48 hours at 37° C.
Procedure: The viability of a mixture of T. cruzi amastigotes and trypomastigotes after exposure to 25 μM of the compounds of the disclosure was determined. 2×10^5 parasites/100 μL were plated in 96-well plates. Parasites expressing tdTomato were used to assess parasite viability using fluorescence measurements. Parasites were incubated with 25 μM of the compounds of the disclosure for 48 hours at 37° C. After the incubation period, the viability of amastigotes and trypomastigotes was assessed by measuring the fluorescence intensity at 510 nm-590 nm using a Tecan plate reader, where the presence of fluorescence indicated viable amastigotes/trypomastigotes.

Jurkat cells = test: MTT cell survival assay, Jurkat; type: cell-based; conditions: Homo sapiens, 48 hours at 37° C., read-out: IC50 (GI50), cell survival
Procedure: The GI50 (IC50), the concentration at which 50% cell survival is seen upon treatment with a compound, was determined for Compound 2 in Jurkat, U87, HeLa, and ARPE cells. Cells were cultured in 96-well plates and incubated with 50 μM, 25 μM, 12.5 μM, 6 μM, 3 μM, 1.5 μM, or 0 μM of Compound 2 for 48 hours at 37° C. Following the incubation period, a 3-(4,5-dimethylthiazol-2-yl)-2,5-diphenyl tetrazolium bromide (MTT) assay was performed. In brief, a 10% volume of MTT was added to each well. Cells were incubated with MTT for 2 hours, at which time cell supernatant was removed and cells were taken into 100 μL DMSO. The absorbance of cell solutions was then read at 595 nm. A decrease in absorbance indicated a decrease in cell survival.

[2] = system: T. cruzi-infected ARPE cells; test: Treatment of T. cruzi-infected ARPE cells, imaging; type: cell-based, Trypanosoma cruzi; conditions: for amastigotes in ARPE cultures: 5 days, EVOS imaging; for T. cruzi seen in EVOS image: day 12
Procedure: Four confocal dishes were prepared with 10,000 ARPE cells, which were adhered overnight at 37° C. The four dishes were ARPE control cells, non-infected but 5 μM Compound 2-treated cells, non-treated but infected cells, and infected cells treated with 5 μM Compound 2. For the infected dishes, ARPE media was removed and replaced with 2 mL of infectious amastigotes and trypomastigotes from the ARPE passaged plate. The dishes were then incubated for 2 hours at 37° C. The treated dishes were incubated with 5 μM Compound 2 for 5 days at 37° C., while untreated dishes were incubated in fresh media without Compound 2 for 5 days at 37° C. After the 5-day period, cells were washed 3 times in ARPE media and fixed with 1 mL 4% paraformaldehyde. Cells were visualized using an EVOS cell imaging system. Amastigotes appeared as small, dense, and mostly birefringent in images.
The experiment above was repeated using 1 μM Compound 2.
Four confocal dishes with 10,000 ARPE cells were prepared and adhered overnight at 37° C. The four dishes were: 1) ARPE control cells; 2) non-infected cells treated with 1 μM Compound 2; 3) untreated infected cells; and 4) T. cruzi-infected cells treated with 1 μM Compound 2. For the infected dishes, ARPE media was removed and replaced with 2 mL of infectious amastigotes and trypomastigotes expressing tdTomato (from ARPE passaged plate). The dishes were then incubated overnight for 7 days at 37° C. The untreated dishes were incubated in fresh media without Compound 2 for 7 days at 37° C. After the 7-day incubation period, cells were washed 3 times in ARPE media and fixed with 1 mL 4% paraformaldehyde. tdTomato fluorescence, which is indicative of viable T. cruzi, was then observed via fluorescence microscopy.
ARPE cells were plated in confocal dishes (20,000 cells per dish) and incubated overnight at 37° C. Cells were infected with T. cruzi by incubating cells with T. cruzi amastigotes and trypomastigotes expressing tdTomato (˜2×10^5 cells in total) for 24 hours at 37° C. Uninfected cells served as controls. Following the T. cruzi incubation period, extracellular parasites were removed, and the medium was replaced with DMEM/F12 culture media with or without 1 μM Compound 2. The cells were incubated further for 24 hours at 37° C. Cells were then treated two more times with fresh DMEM/F12 culture media with or without 1 μM Compound 2 and incubated for 24 hours at 37° C. Following fixation of cells in 4% paraformaldehyde, plates were imaged for tdTomato fluorescence, which is indicative of viable T. cruzi, such that the effects of repeated Compound 2 treatment could be compared to a single treatment with Compound 2.
ARPE cells were plated in confocal dishes (20,000 cells per dish) and incubated overnight at 37° C. Cells were infected with T. cruzi by incubating cells with T. cruzi amastigotes and trypomastigotes expressing tdTomato (˜2×10^5 cells in total) for 24 hours at 37° C. before washing dishes three times with DMEM/F12 culture media. Uninfected plates served as controls. The dishes were then treated with 2 μM Compound 2 or left untreated as a control and incubated further for 5 days at 37° C. The treated dish received a single treatment of Compound 2 on day 1. Dishes were washed twice with DMEM/F12 media and fixed in 4% paraformaldehyde before being imaged using confocal microscopy. […] The other Compound 2 dishes that were not incubated with T. cruzi a second time were used as controls. Following fixation of cells in 4% paraformaldehyde, tdTomato fluorescence of the cells was assessed using confocal microscopy.
ARPE cells were plated in confocal dishes (20,000 cells per dish) and incubated overnight at 37° C. Dishes were incubated with T. cruzi amastigotes and trypomastigotes expressing tdTomato (˜2×10^5 cells) for 48 hours at 37° C. Untreated cells served as controls. Cells were then washed 3 times with cell medium, treated with 5 μM Compound 2 or left untreated as a control and incubated further for 2 days at 37° C. […]

[3] = system: T. gondii-infected ARPE cells; test: Treatment of T. gondii-infected ARPE cells, imaging; type: cell-based, Toxoplasma gondii; conditions: for T. gondii in ARPE cells: 4 days
Procedure: ARPE cells were cultured at confluency in a 24 well plate. Cells were incubated with T. gondii (ATCC PRA-310) for 1 hour at 37° C. to allow for T. gondii internalization. After the 1-hour T. gondii incubation period, extracellular T. gondii was removed from culture and cells were washed 3 times with cell media. […] Cells were visualized using an EVOS cell imaging system. The effect of a 3-day Compound 2 treatment on T. gondii-infected ARPE cells was also investigated. 2×10^4 ARPE cells were infected with ˜1×10^6 T. gondii parasites as described in the above paragraph. Cells were then incubated with 5 μM Compound 2 for 3 days at 37° C. Following incubation with Compound 2, cells were washed 3 times in cell media, fixed with 4% paraformaldehyde, stained with DAPI, and visualized with confocal microscopy.

O=C(NO)C(c1ccccc1)c1c(-c2ccc3ccccc3c2)[nH]c2ccccc12 (stereo not shown) [Compound 2, N-hydroxy-2-(2-(naphthalen-2-yl)-1H-indol-3-yl)-2-phenylacetamide]
toxicity to T. cruzi amastigotes and trypomastigotes [1]: most toxic
IC50 (Jurkat cells): 7.97 ± 1.06 µM
amastigotes in ARPE cultures ([2]; 1 μM): absent
intracellular T. cruzi parasites ([2]; 1 μM, 7 days, tdTomato fluorescence): eradicated
eradication of intracellular T. cruzi and reinfection ([2]; 2 μM, second incubation with T. cruzi): eradicated intracellular T. cruzi and protected cells from reinfection
T. cruzi in ARPE cells (CherryTomato fluorescence) ([2]; 2 μM, two days): eradicated T. cruzi
T. cruzi seen in EVOS image ([2]; 5 μM for 2 days): Small amounts of T. cruzi dots were observed
intracellular parasites ([2]; 5 μM, 2 days, after 48 hours infection): killed intracellular parasites
amastigotes in ARPE cultures ([2]; 5 μM): absent
T. cruzi seen in EVOS image ([2]; 10 μM for 2 days): could not be seen
state of infected ARPE cells after treatment ([2]; 4 treatments with 2 μM over 4 days): cured
T. cruzi-infected cell foci in fluorescence images ([2]; 5 (μM) for 2 days, day 17): Only two T. cruzi-infected cell foci were found
tdTomato fluorescence ([2]; 10 (μM) for 2 days, day 17): no tdTomato fluorescence was observed
long term treatment efficacy against T. cruzi infection ([2]; daily 2 μM for 5 days, then 5 days without treatment): long-term full cure
parasite death ([2]; one treatment with 2 μM, 5-day incubation): full parasite death
T. cruzi infection after treatment ([2]; repeated treatment (three times) with 1 μM, every 24 hours): eradicated the T. cruzi infection
intracellular T. cruzi and re-infection ([2]; single dose of 2 μM, 2 days): killed intracellular T. cruzi and protected the cells from re-infection
T. cruzi infection after treatment ([2]; single treatment with 1 μM): only a small portion of the T. cruzi infection remaining
T. gondii in ARPE cells ([3]; 2 μM): clearance of T. gondii from ARPE cells
T. gondii infection of ARPE cells ([3]; 5 μM, 3 days): cleared ARPE cells of T. gondii infection
T. gondii in ARPE cells ([3]; 5 μM): clearance of T. gondii from ARPE cells
T. gondii infection of ARPE cells ([3]; 5 μM, 5 days): cleared ARPE cells of T. gondii infection
